Experiment: Maximum plasma concentration of octreotide in rats after endoscopic administration
Conditions: same administered octreotide level (5 mg)
Procedure: A control test was conducted on seven control rats. A 5 mg solution of octreotide was endoscopically administered to the control rats, and the resulting maximum plasma concentrations of octreotide in the control rats were measured.
Octreotide was administered to three test rats using techniques that were in accordance with embodiments of the present invention. A drug layer of 5 mg of octreotide was dried onto the outer layer of each of three capsules, and the capsules were endoscopically placed in the small intestine of the three test rats. The resulting maximum plasma concentrations of octreotide in the test rats were measured.

## C[C@@H](O)[C@@H]1NC(=O)[C@H](CCCCN)NC(=O)[C@@H](Cc2c[nH]c3ccccc23)NC(=O)[C@H](Cc2ccccc2)NC(=O)[C@@H](NC(=O)[C@H](N)Cc2ccccc2)CSSC[C@@H](C(=O)N[C@H](CO)[C@@H](C)O)NC1=O [octreotide]
  resultant blood concentration of octreotide, test group (capsule surface) versus control group (solution): significantly higher

— patent publication US8287902B2, “Enhanced-diffusion capsule” (Rainbow Medical Ltd., priority 2008, dated 2012)
